# Data taken from the SangsterLogP compilation.
row,logP,Compound
1,6.43,Clc1cccc(-c2c(Cl)cc(Cl)c(Cl)c2Cl)c1Cl
2,6.5,Clc1cc(-c2c(Cl)cccc2Cl)c(Cl)c(Cl)c1Cl
3,6.71,Clc1cc(Cl)c(Cl)c(-c2cc(Cl)c(Cl)cc2Cl)c1
4,6.68,Clc1cc(Cl)cc(-c2c(Cl)cc(Cl)c(Cl)c2Cl)c1
5,6.52,Clc1ccc(-c2c(Cl)c(Cl)cc(Cl)c2Cl)c(Cl)c1
6,6.1,Clc1cc(Cl)c(Cl)c(-c2c(Cl)cccc2Cl)c1Cl
7,6.31,Clc1cc(Cl)c(-c2c(Cl)ccc(Cl)c2Cl)c(Cl)c1
8,6.79,Clc1cc(Cl)c(Cl)c(-c2ccc(Cl)c(Cl)c2Cl)c1
9,7.02,Clc1cc(Cl)c(Cl)c(-c2cc(Cl)c(Cl)c(Cl)c2)c1
10,6.49,Clc1ccccc1-c1c(Cl)c(Cl)c(Cl)c(Cl)c1Cl
11,6.28,Clc1cc(Cl)c(-c2c(Cl)cccc2Cl)c(Cl)c1Cl
12,6.68,Clc1cc(Cl)cc(-c2c(Cl)c(Cl)cc(Cl)c2Cl)c1
13,6.41,Clc1cc(Cl)c(Cl)c(-c2c(Cl)ccc(Cl)c2Cl)c1
14,6.45,Clc1cc(Cl)c(-c2cc(Cl)cc(Cl)c2Cl)c(Cl)c1
15,6.46,Clc1cc(Cl)c(-c2cc(Cl)c(Cl)cc2Cl)c(Cl)c1
16,6.42,Clc1cccc(-c2c(Cl)c(Cl)cc(Cl)c2Cl)c1Cl
17,6.84,Clc1cccc(-c2c(Cl)c(Cl)c(Cl)c(Cl)c2Cl)c1

row,Compound,logP
1,Clc1cc(Cl)c(-c2c(Cl)ccc(Cl)c2Cl)cc1Cl,6.46
2,Clc1cc(Cl)c(-c2cc(Cl)c(Cl)c(Cl)c2)c(Cl)c1,6.74
3,Clc1ccc(-c2cc(Cl)c(Cl)c(Cl)c2Cl)c(Cl)c1,6.8
4,Clc1ccc(-c2c(Cl)ccc(Cl)c2Cl)c(Cl)c1Cl,6.61
5,Clc1cc(Cl)cc(-c2cc(Cl)c(Cl)c(Cl)c2Cl)c1,7.01
6,Clc1ccc(Cl)c(-c2c(Cl)ccc(Cl)c2Cl)c1Cl,6.27
7,Clc1cc(Cl)c(Cl)c(-c2cc(Cl)cc(Cl)c2Cl)c1,6.63
8,Clc1ccc(-c2c(Cl)c(Cl)c(Cl)c(Cl)c2Cl)cc1,6.87
